Test results as given in ChEMBL document CHEMBL3297662, “Synthesis and identification of cytotoxic diphyllin glycosides as vacuolar H(+)-ATPase inhibitors” (Eur J Med Chem, 2014).
Activity calls are given as the source filed them. No cut-off for these calls is given here.

Assays:
MCF7 = assay: Cytotoxicity against human MCF7 cells assessed as growth inhibition after 72 hrs by MTT assay; type: functional, cell-based; settings: MCF7, 72 h
HeLa = assay: Cytotoxicity against human HeLa cells assessed as growth inhibition after 72 hrs by MTT assay; type: functional, cell-based
HepG2 [1] = assay: Cytotoxicity against human HepG2 cells assessed as growth inhibition after 72 hrs by MTT assay; type: functional, cell-based; settings: HepG2, 72 h
HCT-116 = assay: Cytotoxicity against human HCT116 cells assessed as growth inhibition after 72 hrs by MTT assay; type: functional, cell-based; settings: HCT-116, 72 h
U-251 = assay: Cytotoxicity against human U251 cells assessed as growth inhibition after 72 hrs by MTT assay; type: functional, cell-based; settings: U-251, 72 h
HepG2 [2] = assay: Inhibition of vacuolar H+-ATPase in human HepG2 cells assessed as release of phosphate after 72 hrs by malachite green dye-based spectrophotometric analysis; type: cell-based
HepG2 [3] = assay: Inhibition of vacuolar H+-ATPase in human HepG2 cells assessed as neutralization of lysosomal pH at 10 to 100 nM after 48 hrs by LysoTracker Red dye-based confocal microscopic analysis; type: cell-based

In the case of `COc1cc2c(O[C@@H]3OC[C@@H](OC)[C@H](OC)[C@H]3O[C@@H]3O[C@H](CO)[C@@H](O)[C@H](O)[C@H]3O)c3c(c(-c4ccc5c(c4)OCO5)c2cc1OC)C(=O)OC3`, the IC50 (MCF7) is reported as greater than 200 nM, the IC50 (HeLa) is reported as greater than 200 nM and the IC50 (HepG2 [1]) is reported as greater than 200 nM. The IC50 (HCT-116) was greater than 200 nM and the IC50 (U-251) was greater than 200 nM.

`COc1cc2c(O[C@@H]3OC[C@@H](OC)[C@H](OC)[C@H]3O[C@@H]3O[C@H](COC(C)=O)[C@@H](OC(C)=O)[C@H](OC(C)=O)[C@H]3OC(C)=O)c3c(c(-c4ccc5c(c4)OCO5)c2cc1OC)C(=O)OC3` was tested, and the IC50 (MCF7) was 92 nM, the IC50 (HeLa) was 74 nM and the IC50 (HepG2 [1]) was 39 nM. For the same compound, the IC50 (HCT-116) was 82 nM, the IC50 (U-251) was 101 nM and the inhibition (HepG2 [2]) was “Dose-dependent effect”. For the same compound, the inhibition (HepG2 [3]) was “Active”.

`COc1cc2c(O[C@@H]3OC[C@@H](OC)[C@H](OC)[C@H]3O)c3c(c(-c4ccc5c(c4)OCO5)c2cc1OC)C(=O)OC3` [CLEISTANTHIN] gave an IC50 (MCF7) of 190 nM, an IC50 (HeLa) of 67 nM and an IC50 (HepG2 [1]) of 36 nM. For the same compound, the IC50 (HCT-116) was 31 nM, the IC50 (U-251) was 97 nM and the inhibition (HepG2 [2]) was “Dose-dependent effect”. For the same compound, the inhibition (HepG2 [3]) was “Active”.

`CC(=O)O[C@H]1C(=O)[C@@]2(C)[C@H]([C@H](OC(=O)c3ccccc3)[C@]3(O)C[C@H](OC(=O)[C@H](O)[C@@H](NC(=O)c4ccccc4)c4ccccc4)C(C)=C1C3(C)C)[C@]1(OC(C)=O)CO[C@@H]1C[C@@H]2O` [PACLITAXEL] gave an IC50 (MCF7) of 45 nM, an IC50 (HeLa) of 96 nM and an IC50 (HepG2 [1]) of 84 nM. For the same compound, the IC50 (HCT-116) was 69 nM and the IC50 (U-251) was 128 nM.
